Assay results from patent US20100137313A1 (ASTRAZENECA AB, priority 2008, published 2010).

What follows are molecules tested against S. pneumoniae Topoisomerase IV ATPase (ParE) (Streptococcus pneumoniae serotype 4, UniProt Q59961) (assay: S. pneumoniae Topoisomerase IV ATPase inhibition). Settings: values marked * are an average of two or more data points, read-out: % Inh (13 μM) of S. pneumoniae Topoisomerase IV ATPase.
Format: biochemical
Summary of the method: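 S. pneumoniae ParE (1.25 nM) ATPase with 160 μM ATP and 5 μg/ml sheared DNA in pH 8.0 Tris, Mg2+, DTT, Brij-35; phosphate detected by malachite green/molybdate at 650 nm. Normalised to 2% DMSO (0%) and 20 μM EDTA (100%); IC50 from 10 concentrations.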

S. pneumoniae Topoisomerase IV ATPase (ParE), sequence (Q59961 whole entry): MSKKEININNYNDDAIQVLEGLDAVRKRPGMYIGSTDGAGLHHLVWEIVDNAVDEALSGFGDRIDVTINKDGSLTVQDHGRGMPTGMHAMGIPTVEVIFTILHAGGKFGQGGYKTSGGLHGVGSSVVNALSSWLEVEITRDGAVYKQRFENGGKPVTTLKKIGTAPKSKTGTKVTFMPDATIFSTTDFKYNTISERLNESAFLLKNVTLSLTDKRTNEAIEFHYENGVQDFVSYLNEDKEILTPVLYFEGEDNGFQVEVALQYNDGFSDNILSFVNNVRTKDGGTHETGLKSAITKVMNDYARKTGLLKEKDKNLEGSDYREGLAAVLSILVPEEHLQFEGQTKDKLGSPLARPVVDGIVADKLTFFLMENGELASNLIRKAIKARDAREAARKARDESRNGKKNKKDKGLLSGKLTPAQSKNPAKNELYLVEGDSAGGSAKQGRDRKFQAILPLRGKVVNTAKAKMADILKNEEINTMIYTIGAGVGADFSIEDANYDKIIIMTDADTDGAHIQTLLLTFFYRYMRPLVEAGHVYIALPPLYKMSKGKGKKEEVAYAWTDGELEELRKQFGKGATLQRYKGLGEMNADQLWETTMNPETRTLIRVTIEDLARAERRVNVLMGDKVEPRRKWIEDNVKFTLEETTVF

SMILES	inhibition at 13 µM [%]
CCOC(=O)/C=C/c1cccc(-c2cnc(Nc3ccc(F)c(Cl)c3)nc2N2CCN(S(C)(=O)=O)CC2)c1 [Example 174, (E)-ethyl 3-(3-(2-(3-chloro-4-fluorophenylamino)-4-(4-(methylsulfonyl)piper-azin-1-yl)pyrimidin-5-yl)phenyl)acrylate]	52.1
COc1cc(C#N)cc(Nc2ncc(-c3cnc(OC)c(C(=O)O)c3)c(-n3nc(C(F)(F)F)cc3C)n2)c1 [Example 737, 5-{2-[(3-cyano-5-methoxyphenyl)amino]-4-[5-methyl-3-(trifluoromethyl)-1H-pyrazol-1-yl]pyrimidin-5-yl}-2-methoxypyridine-3-carboxylic acid]	97
Cc1cccc(Nc2ncc(-c3cncc(C(=O)O)c3)c(-n3nc(C(F)(F)F)cc3C)n2)c1 [Example 711, 5-{2-[(3-methylphenyl)amino]-4-[5-methyl-3-(trifluoromethyl)-1H-pyrazol-1-yl]pyrimidin-5-yl}pyridine-3-carboxylic acid]	100
CCC(C)Nc1nc(Nc2ccc(F)c(Cl)c2)ncc1-c1ccc(Cl)c(NC(=O)OC(C)(C)C)c1 (stereo not drawn) [Example 1110, tert-butyl N-[5-[4-(butan-2-ylamino)-2-[(3-chloro-4-fluorophenyl)amino]pyrimidin-5-yl]-2-chlorophenyl]carbamate]	99
O=C(O)/C=C/c1cccc(-c2cnc(Nc3cccc4cc[nH]c34)nc2N2CCOCC2)c1 [Example 517, (2E)-3-{3-[2-(1H-indol-7-ylamino)-4-(morpholin-4-yl)pyrimidin-5-yl]phenyl}prop-2-enoic acid]	100
Cc1cc(C(F)(F)F)nn1-c1nc(Nc2ccc3c(c2)CCC3)ncc1-c1cncc(C(=O)O)c1 [Example 669, 5-{2-(2,3-dihydro-1H-inden-5-ylamino)-4-[5-methyl-3-(trifluoromethyl)-1H-pyrazol-1-yl]pyrimidin-5-yl}pyridine-3-carboxylic acid]	68
O=S1(=O)CCN(CCNc2nc(Nc3ccc(F)c(Cl)c3)ncc2-c2cncnc2)CC1 [Example 47, N^2-(3-chloro-4-fluorophenyl)-N^4-[2-(1,1-dioxo-1,4-thiazinan-4-yl)ethyl]-5-pyrimidin-5-ylpyrimidine-2,4-diamine]	74.8
COCC(COC)Oc1ncc(-c2cnc(Nc3ccc(F)c(Cl)c3)nc2-n2ccc(C(F)(F)F)n2)cc1C(=O)O [Example 869, 5-(2-(3-chloro-4-fluorophenylamino)-4-(3-(trifluoromethyl)-1H-pyrazol-1-yl)pyrimidin-5-yl)-2-(1,3-dimethoxypropan-2-yloxy)nicotinic acid]	93
Cc1cc(C(F)(F)F)nn1-c1nc(Nc2ccc(F)c(Cl)c2)ncc1-c1cncc(C(=O)NCCN2CCN(C)CC2)c1 [Example 928, 5-(2-(3-chloro-4-fluorophenylamino)-4-(5-methyl-3-(trifluoromethyl)-1H-pyrazol-1-yl)pyrimidin-5-yl)-N-(2-(4-methylpiperazin-1-yl)ethyl)nicotinamide]	85
COc1cc(Nc2ncc(-c3cnc(OC)c(C(=O)NS(=O)(=O)c4ccc(CNC(C)=O)cc4)c3)c(-n3nc(C(F)(F)F)cc3C)n2)cc(OC)c1 [Example 846, N-({4-[(acetylamino)methyl]phenyl}sulfonyl)-5-{2-[(3,5-dimethoxyphenyl)amino]-4-[5-methyl-3-(trifluoromethyl)-1H-pyrazol-1-yl]pyrimidin-5-yl}-2-methoxypyridine-3-carboxamide]	97
O=C(O)CCC(=O)Nc1ccc(-c2cnc(Nc3ccc(F)c(Cl)c3)nc2N2CCOCC2)cc1 [Example 478, 4-[(4-{2-[(3-chloro-4-fluorophenyl)amino]-4-(morpholin-4-yl)pyrimidin-5-yl}phenyl)amino]-4-oxobutanoic acid]	100
COCCCNc1nc(Nc2ccc(F)c(Cl)c2)ncc1-c1nc(C(=O)OC)cs1 [Example 212, Methyl 2-(2-(3-chloro-4-fluorophenylamino)-4-(3-methoxypropylamino)pyrimidin-5-yl)thiazole-4-carboxylate]	14.5
